What was measured:
Hep 3B2 [1] = assay: Cell cycle arrest in human Hep3B cells assessed as accumulation at S phase at 5 uM after 48 hrs by propidium iodide staining based flow cytometry (reference value: 20.8 to 24%); type: functional
[2] = Growth inhibition of HUVEC at 25 uM after 24 hrs by MTT assay relative to control; type: cell-based; conditions: human, HUVEC cells; read-out: GI
Hep 3B2 [3] = assay: Cell cycle arrest in human Hep3B cells assessed as accumulation at S phase at 10 uM after 72 hrs by propidium iodide staining based flow cytometry (reference value: 16.4 to 21.1%); type: functional
[4] = Growth inhibition of HUVEC at 50 uM after 24 hrs by MTT assay relative to control; type: cell-based; conditions: human, HUVEC cells; read-out: GI
Hep 3B2 [5] = assay: Cell cycle arrest in human Hep3B cells assessed as accumulation at S phase at 10 uM after 24 hrs by propidium iodide staining based flow cytometry (reference value: 22.6 to 27.1%); type: functional
Hep 3B2 [6] = assay: Cell cycle arrest in human Hep3B cells assessed as accumulation at S phase at 20 uM after 48 hrs by propidium iodide staining based flow cytometry (reference value: 20.8 to 24%); type: functional
Hep 3B2 [7] = assay: Cytotoxicity against human Hep3B cells after 48 hrs by MTT assay; type: functional, cell-based
Hep 3B2 [8] = assay: Cell cycle arrest in human Hep3B cells assessed as accumulation at S phase at 20 uM after 24 hrs by propidium iodide staining based flow cytometry (reference value: 22.6 to 27.1%); type: functional
Hep 3B2 [9] = assay: Cell cycle arrest in human Hep3B cells assessed as accumulation at G2/M phase at 5 uM after 72 hrs by propidium iodide staining based flow cytometry (reference value: 28.7 to 32.3%); type: functional
Hep 3B2 [10] = assay: Cell cycle arrest in human Hep3B cells assessed as accumulation at S phase at 2.5 uM after 72 hrs by propidium iodide staining based flow cytometry (reference value: 16.4 to 21.1%); type: functional
Hep 3B2 [11] = assay: Cell cycle arrest in human Hep3B cells assessed as accumulation at sub-G1 phase at 2.5 to 20 uM by propidium iodide staining based flow cytometry; type: functional; conditions: TDE = time-dependent effect
Hep 3B2 [12] = assay: Cell cycle arrest in human Hep3B cells assessed as accumulation at S phase at 10 uM after 48 hrs by propidium iodide staining based flow cytometry (reference value: 20.8 to 24%); type: functional
Hep 3B2 [13] = assay: Cytotoxicity against human Hep3B cells at 20 uM after 48 hrs by MTT assay relative to control; type: functional
Hep 3B2 [14] = assay: Cell cycle arrest in human Hep3B cells assessed as accumulation at G0/G1 phase at 5 uM after 72 hrs by propidium iodide staining based flow cytometry (reference value: 41.6 to 46.2%); type: functional
Hep 3B2 [15] = assay: Cell cycle arrest in human Hep3B cells assessed as accumulation at G0/G1 phase at 5 uM after 24 hrs by propidium iodide staining based flow cytometry (reference value: 36.3 to 39.0%); type: functional
Hep 3B2 [16] = assay: Induction of autophagy in human Hep3B cells at 10 uM after 72 hrs by acridine orange staining based flow cytometry (reference value: 1.1 to 4%); type: functional
Hep 3B2 [17] = assay: Cell cycle arrest in human Hep3B cells assessed as accumulation at sub-G1 phase at 20 uM after 48 hrs by propidium iodide staining based flow cytometry (reference value: 1.5 to 6.5%); type: functional
Hep 3B2 [18] = assay: Induction of autophagy in human Hep3B cells at 20 uM after 48 hrs by acridine orange staining based flow cytometry (reference value: 0.9 to 3%); type: functional
Hep 3B2 [19] = assay: Cell cycle arrest in human Hep3B cells assessed as accumulation at sub-G1 phase at 40 uM after 24 hrs by propidium iodide staining based flow cytometry (reference value: 1.9 to 3.6%); type: functional
Hep 3B2 [20] = assay: Cell cycle arrest in human Hep3B cells assessed as accumulation at sub-G1 phase at 40 uM after 48 hrs by propidium iodide staining based flow cytometry (reference value: 1.5 to 6.5%); type: functional
Hep 3B2 [21] = assay: Cell cycle arrest in human Hep3B cells assessed as accumulation at S phase at 40 uM after 24 hrs by propidium iodide staining based flow cytometry (reference value: 22.6 to 27.1%); type: functional
Hep 3B2 [22] = assay: Down regulation of RTN2 expression in human Hep3B cells at 1 uM after 6 to 24 hrs by L1000 expression profiling method relative to control; type: functional
Hep 3B2 [23] = assay: Induction of autophagy in human Hep3B cells assessed as ratio of LC3-2 to beta-actin level at 10 uM after 48 hrs in presence of curcumin by Western blot analysis; type: functional
Hep 3B2 [24] = assay: Down regulation of PLA2G4A expression in human Hep3B cells at 1 uM after 6 to 24 hrs by L1000 expression profiling method relative to control; type: functional
Hep 3B2 [25] = assay: Induction of apoptosis in human Hep3B cells assessed as ratio of cleaved caspase-3 to beta actin level at 10 uM after 48 hrs in absence of curcumin by Western blot analysis; type: functional
Hep 3B2 [26] = assay: Up regulation of OXA1L expression in human Hep3B cells at 1 uM after 6 to 24 hrs by L1000 expression profiling method relative to control; type: functional
Hep 3B2 [27] = assay: Down regulation of UBE2J1 expression in human Hep3B cells at 1 uM after 6 to 24 hrs by L1000 expression profiling method relative to control; type: functional
Hep 3B2 [28] = assay: Induction of apoptosis in human Hep3B cells assessed as ratio of cleaved caspase-3 to beta actin level at 10 uM after 48 hrs in presence of curcumin by Western blot analysis; type: functional
Hep 3B2 [29] = assay: Cell cycle arrest in human Hep3B cells assessed as accumulation at G0/G1 phase at 10 uM after 48 hrs in presence of curcumin by propidium iodide staining based flow cytometry (reference value: […] +/- […]%); type: functional
Hep 3B2 [30] = assay: Down regulation of SNX13 expression in human Hep3B cells at 1 uM after 6 to 24 hrs by L1000 expression profiling method relative to control; type: functional
Hep 3B2 [31] = assay: Down regulation of SHB expression in human Hep3B cells at 1 uM after 6 to 24 hrs by L1000 expression profiling method relative to control; type: functional
Hep 3B2 [32] = assay: Down regulation of EXT1 expression in human Hep3B cells at 1 uM after 6 to 24 hrs by L1000 expression profiling method relative to control; type: functional
Hep 3B2 [33] = assay: Down regulation of CD40 expression in human Hep3B cells at 1 uM after 6 to 24 hrs by L1000 expression profiling method relative to control; type: functional
Hep 3B2 [34] = assay: Down regulation of TMX2-CTNND1 expression in human Hep3B cells at 1 uM after 6 to 24 hrs by L1000 expression profiling method relative to control; type: functional
Hep 3B2 [35] = assay: Cell cycle arrest in human Hep3B cells assessed as accumulation at G2/M phase at 10 uM after 48 hrs in absence of curcumin by propidium iodide staining based flow cytometry (reference value: 36.6 +/- 2.9%); type: functional
Hep 3B2 [36] = assay: Down regulation of SNX7 expression in human Hep3B cells at 1 uM after 6 to 24 hrs by L1000 expression profiling method relative to control; type: functional
Hep 3B2 [37] = assay: Down regulation of SLC27A3 expression in human Hep3B cells at 1 uM after 6 to 24 hrs by L1000 expression profiling method relative to control; type: functional

| Compound | Activity (Hep 3B2 [1]) [%] | inhibition at 24 h, 25 µM [2] [%] | Activity (Hep 3B2 [3]) [%] | inhibition at 24 h, 50 µM [4] [%] | Activity (Hep 3B2 [5]) [%] | Activity (Hep 3B2 [6]) [%] | IC50 (Hep 3B2 [7]) [µM] | Activity (Hep 3B2 [8]) [%] | Activity (Hep 3B2 [9]) [%] | Activity (Hep 3B2 [10]) [%] | Activity (Hep 3B2 [11]) | Activity (Hep 3B2 [12]) [%] | Activity (Hep 3B2 [13]) [%] | Activity (Hep 3B2 [14]) [%] | Activity (Hep 3B2 [16]) [%] | Activity (Hep 3B2 [17]) [%] | Activity (Hep 3B2 [18]) [%] | further results |
| --- | --- | --- | --- | --- | --- | --- | --- | --- | --- | --- | --- | --- | --- | --- | --- | --- | --- | --- |
| CNC(=O)c1cc(Oc2ccc(NC(=O)Nc3ccc(Cl)c(C(F)(F)F)c3)cc2)ccn1 [SORAFENIB] | 13.1 | 41.4 | 7.9 | 60 | 12.3 | 9.6 | 11.2 | 14.3 | 31.3 | 15 | Tde | 8.8 | 68.4 | 47.8 | – | – | – | – |
| COc1ccc(CNC(=O)Nc2ncc([N+](=O)[O-])s2)cc1 | 24.6 | – | 21.5 | – | 23.4 | 20 | – | 25.1 | 33.9 | 21.1 | – | 23.2 | – | 42.4 | 13.2 | 3.6 | 5.5 | Activity (Hep 3B2 [15]): 32.5%; Activity (Hep 3B2 [19]): 6.5%; Activity (Hep 3B2 [20]): 8.9%; Activity (Hep 3B2 [21]): 21.1% |
| O=C1COc2ccccc2N1Cc1cn(CCC2OCCO2)nn1 | – | 23.8 | – | 21.5 | – | – | 16.8 | – | – | – | Tde | – | 53.4 | – | 49.4 | 57.2 | 37 | log2FC (Hep 3B2 [22]): -4.1606; Ratio (Hep 3B2 [23]): 10.5; log2FC (Hep 3B2 [24]): -3.7476; Ratio (Hep 3B2 [25]): 2.8; log2FC (Hep 3B2 [26]): 3.2193; log2FC (Hep 3B2 [27]): -3.3451; Ratio (Hep 3B2 [28]): 1.4; Activity (Hep 3B2 [29]): 24.8%; log2FC (Hep 3B2 [30]): -4.142; log2FC (Hep 3B2 [31]): -3.2569; log2FC (Hep 3B2 [32]): -4.2621; log2FC (Hep 3B2 [33]): -3.3087; log2FC (Hep 3B2 [34]): -3.9071; Activity (Hep 3B2 [35]): 37.1%; log2FC (Hep 3B2 [36]): -4.1511; log2FC (Hep 3B2 [37]): -3.1535 |

— ChEMBL document CHEMBL4024707, “Using gene expression database to uncover biology functions of 1,4-disubstituted 1,2,3-triazole analogues synthesized via a copper (I)-catalyzed reaction” (Eur J Med Chem, 2017)
